In patent US20150352108A1, “AMINO-PYRIMIDINE COMPOUNDS AS INHIBITORS OF TBK1 AND/OR IKK EPSILON” (Alzheimer's Institute of America, priority 2009, published 2015):
Where two headings read alike, the source gives them in different places.

Columns and labels:
IKKε = biological target: T1, IKKε (Homo sapiens, UniProt Q14164); test: In-vitro IKKε kinase assay ([γ33]ATP filter-plate); assay type: biochemical
T1 construct: His-tag; made in house; host or cells: Sf9 insect cells
T1 sequence (Q14164 1-716): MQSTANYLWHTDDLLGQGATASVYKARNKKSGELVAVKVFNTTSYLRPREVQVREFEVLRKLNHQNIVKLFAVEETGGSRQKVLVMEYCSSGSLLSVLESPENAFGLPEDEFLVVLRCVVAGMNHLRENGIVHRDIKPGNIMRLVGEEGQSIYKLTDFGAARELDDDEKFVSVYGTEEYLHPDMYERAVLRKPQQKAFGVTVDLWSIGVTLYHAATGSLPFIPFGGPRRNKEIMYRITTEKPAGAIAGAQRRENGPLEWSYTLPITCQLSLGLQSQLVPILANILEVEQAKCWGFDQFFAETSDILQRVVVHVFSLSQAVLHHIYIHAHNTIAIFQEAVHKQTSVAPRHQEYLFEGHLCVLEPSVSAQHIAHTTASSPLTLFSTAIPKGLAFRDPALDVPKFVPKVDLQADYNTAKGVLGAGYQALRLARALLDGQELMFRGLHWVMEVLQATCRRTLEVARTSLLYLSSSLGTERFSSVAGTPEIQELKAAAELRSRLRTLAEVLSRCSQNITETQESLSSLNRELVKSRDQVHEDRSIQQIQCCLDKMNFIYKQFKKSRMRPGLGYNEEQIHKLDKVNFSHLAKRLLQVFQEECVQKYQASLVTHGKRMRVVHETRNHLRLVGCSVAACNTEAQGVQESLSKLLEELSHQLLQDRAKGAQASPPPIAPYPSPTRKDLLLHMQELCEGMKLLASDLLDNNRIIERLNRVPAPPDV
In short: (§1)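 His-tagged Sf9-expressed kinases at 0.1 or 0.02 μg/ml (TBK1) and 0.1 or 0.015 μg/ml (IKKε) for normal and sensitized formats, with myelin basic protein or casein substrate. ATP was at 2×Km (60 μM TBK1, 32 μM IKKε) plus 0.3 μCi [γ33]ATP. Reactions ran 30-45 min, were captured on P-81 filters, and counts were normalized to DMSO.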

TBK1 = biological target: T2, TBK1 (Homo sapiens, UniProt Q9UHD2); test: In-vitro TBK1 kinase assay ([γ33]ATP filter-plate); assay type: biochemical
T2 construct: His-tag; made in house; host or cells: Sf9 insect cells
T2 sequence (Q9UHD2 1-729): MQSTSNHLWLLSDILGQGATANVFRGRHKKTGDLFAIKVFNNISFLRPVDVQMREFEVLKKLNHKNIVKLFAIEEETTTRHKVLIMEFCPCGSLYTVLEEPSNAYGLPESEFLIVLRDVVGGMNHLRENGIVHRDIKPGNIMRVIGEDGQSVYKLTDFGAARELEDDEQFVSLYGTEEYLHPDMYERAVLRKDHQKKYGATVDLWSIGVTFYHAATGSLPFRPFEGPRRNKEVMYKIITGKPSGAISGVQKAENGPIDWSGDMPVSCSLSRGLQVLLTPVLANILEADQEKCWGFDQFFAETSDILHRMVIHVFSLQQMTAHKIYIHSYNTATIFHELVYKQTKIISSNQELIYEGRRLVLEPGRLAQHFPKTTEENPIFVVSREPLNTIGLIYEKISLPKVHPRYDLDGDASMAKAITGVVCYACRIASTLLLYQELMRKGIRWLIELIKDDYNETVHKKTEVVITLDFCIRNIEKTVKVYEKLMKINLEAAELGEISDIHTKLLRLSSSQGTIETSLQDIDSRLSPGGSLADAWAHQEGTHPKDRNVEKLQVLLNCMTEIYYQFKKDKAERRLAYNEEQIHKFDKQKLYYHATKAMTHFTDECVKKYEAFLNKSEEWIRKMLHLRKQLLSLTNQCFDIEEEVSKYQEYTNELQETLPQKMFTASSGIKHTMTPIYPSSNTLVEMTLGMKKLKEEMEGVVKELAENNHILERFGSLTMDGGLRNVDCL
In short: as §1

[1] = test system: IKKε-mediated phosphorylation of IRF3; test: In-situ phosphorylation of IRF3 (pIRF3 Ser396 ELISA) in HEK293T cells cotransfected with IRF3 and IKKε; assay type: cell-based; conditions: Homo sapiens, HEK-293T
In short: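 Cells for the IRF7 Western blots carried IRF7 and TBK1 plasmids, were seeded at 150,000/well, exposed to compound overnight and probed for pSer477/Ser479 IRF7. The ELISA readout used IRF3 + IKKε-cotransfected HEK293T at 20,000/well with 20 h treatment, quantifying pSer396 IRF3 relative to DMSO, plus a parallel CellTiter-Glo viability check.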

[2] = text bins, read-out: IC50 for inhibition of the kinase activity of IKKε
[3] = text bins, read-out: IC50 for inhibition of the kinase activity of TBK1
[4] = HEK293T cells, 20 hours, text bins, read-out: IC50 for inhibition of the in-situ IKKε-mediated phosphorylation of IRF3
[5] = HEK293T cells in culture, Table 3, read-out: pIRF3 ELISA IC50

Row | IC50 (IKKε; [2]) [nM] | IC50 (TBK1; [3]) [nM] | IC50 [1, 4] [nM] | IC50 (IKKε; Table 3, read-out: IKKε IC50) [nM] | IC50 (TBK1; Table 3, read-out: TBK1 IC50) [nM] | IC50 [1, 5] [nM] | SMILES
1 | < 5 | < 10 | < 100 | – | – | – | COc1cc(Nc2nccc(-c3ccc(OC4CCOCC4)c(C#N)c3)n2)ccc1OCCOCCNS(C)(=O)=O [Example 22]
2 | < 5 | < 10 | 100 to 250 | – | – | – | COc1cc(Nc2nccc(-c3ccc(OC4CCOCC4)c(C#N)c3)n2)ccc1OCCCS(=O)(=O)N1CCN(C)CC1 [Example 25, 5-{2-[(3-methoxy-4-{3-[(4-methylpiperazin-1-yl)sulfonyl]propoxy}phenyl)amino]pyrimidin-4-yl}-2-(tetrahydro-2H-pyran-4-yloxy)benzonitrile]
3 | < 5 | < 10 | 250 to 500 | – | – | – | COc1cc(Nc2nccc(-c3ccc(OC4CCOCC4)c(C#N)c3)n2)ccc1OCCOCCNS(=O)(=O)N1CCN(C)CC1 [Example 27, N-(2-{2-[4-({4-[3-cyano-4-(tetrahydro-2H-pyran-4-yloxy)phenyl]pyrimidin-2-yl}amino)-2-methoxyphenoxy]ethoxy}ethyl)-4-methylpiperazine-1-sulfonamide]
4 | < 5 | < 10 | 250 to 500 | – | – | – | COc1cc(Nc2nccc(-c3ccc(OC4CCOCC4)c(C#N)c3)n2)ccc1OCCN [Example 30, 5-(2-{[4-(2-aminoethoxy)-3-methoxyphenyl]amino}pyrimidin-4-yl)-2-(tetrahydro-2H-pyran-4-yloxy)benzonitrile]
5 | < 5 | < 10 | < 100 | – | – | – | COc1cc(Nc2nccc(-c3ccc(OC4CCOCC4)c(C#N)c3)n2)ccc1OCCCN1CCOCC1 [Example 31, 5-[2-({3-methoxy-4-[3-(morpholin-4-tl)propoxy]phenyl}amino)pyrimidin-4-yl]-2-(tetrahydro-2H-pyran-4-yloxy)benzonitrile]
6 | < 5 | < 10 | 100 to 250 | – | – | – | COc1ccc(Nc2nccc(-c3ccc(OC4CCOCC4)c(C#N)c3)n2)cc1OCCOCCN [Example 32, 5-[2-({3-[2-(2-aminoethoxy)ethoxy]-4-methoxyphenyl}amino)pyrimidin-4-yl]-2-(tetrahydro-2H-pyran-4-yloxy)benzonitrile]
7 | < 5 | < 10 | 250 to 500 | – | – | – | C[C@H](O)C(=O)N1CCC(Oc2ccc(-c3ccnc(Nc4ccc(C(=O)N5CCN(C)CC5)cc4)n3)cc2C#N)CC1 [Example 35, 2-({1-[(2S)-2-hydroxypropanoyl]piperidin-4-yl}oxy)-5-[2-({4-[(4-methylpierazin-1-yl)carbonyl]phenyl}amino)pyrimidin-4-yl]benzonitrile]
8 | < 5 | < 10 | < 100 | 0.2 | 0.4 | 16.2 | COc1cc(Nc2nccc(-c3ccc(OC4CCN(C(=O)CO)CC4)c(C#N)c3)n2)ccc1N1CCOCC1 [Example 59, 2-{[1-(hydroxyacetyl)piperidin-4-yl]oxy}-5-(2-{[3-methoxy-4-(morpholin-4-yl)phenyl]amino}pyrimidin-4-yl)benzonitrile]
9 | 5 to 50 | < 10 | 250 to 500 | – | – | – | N#Cc1cc(-c2ccnc(Nc3ccc(N4CCOCC4)cc3)n2)ccc1NCc1ccccn1 [Example 64, 5-(2-{[4-(Morpholin-4-yl)phenyl]amino}pyrimidin-4-yl)-2-[(pyridin-2-ylmethyl)amino] benzonitrile]
10 | < 5 | 10 to 100 | 250 to 500 | – | – | – | N#Cc1cc(-c2ccnc(Nc3ccc(N4CCOCC4)cc3)n2)ccc1OCC1CCNCC1 [Example 72, 5-(2-{[4-(morpholin-4-yl)phenyl]amino}pyrimidin-4-yl)-2-(piperidin-4-ylmethoxy) benzonitrile]
11 | < 5 | < 10 | < 100 | – | – | – | COc1cc(Nc2nccc(-c3ccc(OC4CCOCC4)c(C#N)c3)n2)ccc1N1CCOCC1 [Example 73, 5-(2-{[3-methoxy-4-(morpholin-4-yl)phenyl]amino}pyrimidin-4-yl)-2-(tetrahydro-2H-pyran-4-yloxy)benzonitrile]
12 | < 5 | < 10 | 250 to 500 | – | – | – | COc1cc(Nc2nccc(-c3ccc(NC(=O)C(C)C)c(C#N)c3)n2)ccc1N1CCOCC1 [Example 75, N-[2-cyano-4-(2-{[3-methoxy-4-(morpholin-4-yl)phenyl]amino}pyrimidin-4-yl)phenyl]-2-methylpropanamide]
13 | < 5 | < 10 | 100 to 250 | – | – | – | COc1cc(Nc2nccc(-c3ccc(OC4CCOCC4)c(C#N)c3)n2)ccc1S(=O)(=O)NCCCn1ccnc1 [Example 83, 4-({4-[3-cyano-4-(tetrahydro-2H-pyran-4-yloxy)phenyl]pyrimidin-2-yl}amino)-N-[3-(1H-imidazol-1-yl)propyl]-2-methoxybenzene-sulfonamide]
14 | < 5 | < 10 | 100 to 250 | 0.7 | 0.3 | 139 | N#Cc1cc(-c2ccnc(Nc3ccc(N4CCOCC4)cc3)n2)ccc1NC(=O)CC(F)(F)F [Example 93, N-[2-cyano-4-(2-{[4-(morpholin-4-yl)phenyl]amino}pyrimidin-4-yl)phenyl]-3,3,3-trifluoropropanamide]
15 | < 5 | < 10 | 250 to 500 | – | – | – | COc1cc(Nc2nccc(-c3ccc(OC4CCOCC4)c(C#N)c3)n2)ccc1C(=O)NCCCN(C)C [Example 103, 4-({4-[3-cyano-4-(tetrahydro-2H-pyran-4-yloxy)phenyl]pyrimidin-2-yl}amino)-N-[3-(dimethylamino)propyl]-2-methoxybenzamide]
16 | < 5 | < 10 | < 100 | – | – | – | COc1cc(Nc2nccc(-c3ccc(OC4CCOCC4)c(C#N)c3)n2)ccc1S(=O)(=O)N1CCN(C)CC1 [Example 114, 5-[2-({3-methoxy-4-[(4-methylpiperazin-1-yl)sulfonyl]phenyl}amino)pyrimidin-4-yl]-2-(tetrahydro-2H-pyran-4-yloxy)benzonitrile]
17 | < 5 | < 10 | 250 to 500 | – | – | – | COc1ccc(Nc2nccc(-c3ccc(OC4CCOCC4)c(C#N)c3)n2)cc1OCC(N)=O [Example 132, 2-[5-({4-[3-cyano-4-(tetrahydro-2H-pyran-4-yloxy)phenyl]pyrimidin-2-yl}amino)-2-methoxyphenoxy] acetamide]
18 | < 5 | < 10 | 250 to 500 | – | – | – | COc1ccc(-c2ccnc(Nc3ccc(N4CCOCC4)c(OC)c3)n2)cc1C#N [Example 157, 2-Methoxy-5-(2-{[3-methoxy-4-(morpholin-4-yl)phenyl]amino}pyrimidin-4-yl)benzonitrile]
19 | < 5 | < 10 | < 100 | 0.9 | 0.3 | 12.5 | COc1cc(Nc2nccc(-c3ccc(OC4CCOCC4)c(C#N)c3)n2)ccc1S(=O)(=O)NCCCN1CCOCC1 [Example 176]
